System: 931267-113-T-J1-PDC KRAS spheroid with HUVEC/MSC, viability
Test: Anticancer human tumor 931267-113-T-J1-PDC patient-derived colon adenocarcinoma cell line growth inhibition [KRAS2]
Settings: for IC50: curve of first compound; for viability, T/C: stronger effect = lower value
In short: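 KRAS-mutant tumor cells were grown as spheroids with HUVEC endothelial cells and human MSCs as stroma. Targeted agents were tested alone and with KRAS pathway inhibitors. Doses started at or near clinical Cmax, or 10 microM, descending half-log.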

[1] = second compound 0.1 µM, first compound 0.0316 µM
[2] = second compound 0.1 µM, first compound 0.1 µM
[3] = second compound 0.1 µM, first compound 0.316 µM
[4] = second compound 0.1 µM, first compound 1 µM
[5] = second compound 0.1 µM, first compound 3.16 µM
[6] = second compound 0.1 µM, first compound 10 µM
[7] = second compound 0.316 µM, first compound 0.0316 µM
[8] = second compound 0.316 µM, first compound 0.1 µM
[9] = second compound 0.316 µM, first compound 0.316 µM
[10] = second compound 0.316 µM, first compound 1 µM
[11] = second compound 0.316 µM, first compound 3.16 µM
[12] = second compound 0.316 µM, first compound 10 µM
[13] = second compound 1 µM, first compound 0.0316 µM
[14] = second compound 1 µM, first compound 0.1 µM
[15] = second compound 1 µM, first compound 0.316 µM
[16] = second compound 1 µM, first compound 1 µM
[17] = second compound 1 µM, first compound 3.16 µM
[18] = second compound 1 µM, first compound 10 µM
[19] = second compound 3.16 µM, first compound 0.0316 µM
[20] = second compound 3.16 µM, first compound 0.1 µM
[21] = second compound 3.16 µM, first compound 0.316 µM
[22] = second compound 3.16 µM, first compound 1 µM
[23] = second compound 3.16 µM, first compound 3.16 µM
[24] = second compound 3.16 µM, first compound 10 µM
[25] = second compound 10 µM, first compound 0.0316 µM
[26] = second compound 10 µM, first compound 0.1 µM
[27] = second compound 10 µM, first compound 0.316 µM
[28] = second compound 10 µM, first compound 1 µM
[29] = second compound 10 µM, first compound 3.16 µM
[30] = second compound 10 µM, first compound 10 µM
[31] = second compound 0.1 µM, first compound 0.00316 µM
[32] = second compound 0.1 µM, first compound 0.01 µM
[33] = second compound 0.316 µM, first compound 0.00316 µM
[34] = second compound 0.316 µM, first compound 0.01 µM
[35] = second compound 1 µM, first compound 0.00316 µM
[36] = second compound 1 µM, first compound 0.01 µM
[37] = second compound 3.16 µM, first compound 0.00316 µM
[38] = second compound 3.16 µM, first compound 0.01 µM
[39] = second compound 10 µM, first compound 0.00316 µM
[40] = second compound 10 µM, first compound 0.01 µM
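Also: compound exposure lasted 7 days before the readout.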
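For viability, T/C in this document: 100% = DMSO vehicle control viability.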

SMILES | IC50 (second compound 0.1 µM) | IC50 (second compound 0.316 µM) | IC50 (second compound 1 µM) | IC50 (second compound 3.16 µM) | IC50 (second compound 10 µM) | viability, T/C [1] | viability, T/C [2] | viability, T/C [3] | viability, T/C [4] | viability, T/C [7] | viability, T/C [8] | viability, T/C [9] | viability, T/C [10] | viability, T/C [13] | viability, T/C [14] | viability, T/C [15] | viability, T/C [19] | viability, T/C [20] | viability, T/C [25] | viability, T/C [26] | also measured
CC(C)NCC(C(=O)N1CCN(c2ncnc3c2C(C)CC3O)CC1)c1ccc(Cl)cc1 (stereo not given) + C=CC(=O)N1CCN(c2nc(=O)n(-c3c(C)ccnc3C(C)C)c3nc(-c4c(O)cccc4F)c(F)cc23)C(C)C1 | 6.74 µM | 5.61 µM | 4.63 µM | 6.03 µM | 1.81 µM | 109% | 97.2% | 85.8% | 89.1% | 95.5% | 83.2% | 80.2% | 75.1% | 95.9% | 96% | 76.8% | 83.7% | 90.6% | 81.4% | 71.4% | viability, T/C [5]: 71.7%; viability, T/C [6]: 38.5%; viability, T/C [11]: 62.5%; viability, T/C [12]: 38.2%; viability, T/C [16]: 71.2%; viability, T/C [17]: 68%; viability, T/C [18]: 28.8%; viability, T/C [21]: 80.6%; viability, T/C [22]: 79.1%; viability, T/C [23]: 64.7%; viability, T/C [24]: 38.3%; viability, T/C [27]: 70.5%; viability, T/C [28]: 49.7%; viability, T/C [29]: 50.7%; viability, T/C [30]: 22.4%
CCN1CCN(Cc2ccc(Nc3ncc(F)c(-c4cc(F)c5nc(C)n(C(C)C)c5c4)n3)nc2)CC1 + C=CC(=O)N1CCN(c2nc(=O)n(-c3c(C)ccnc3C(C)C)c3nc(-c4c(O)cccc4F)c(F)cc23)C(C)C1 | > 1 µM | > 1 µM | > 1 µM | > 1 µM | 0.367 µM | 81.2% | 87.4% | 71.8% | 50.8% | 82.5% | 65.8% | 60.8% | 50.8% | 78.4% | 80.9% | 60.7% | 83.5% | 73.6% | 90.2% | 72.5% | viability, T/C [31]: 103%; viability, T/C [32]: 73.6%; viability, T/C [33]: 95.2%; viability, T/C [34]: 88.3%; viability, T/C [35]: 105%; viability, T/C [36]: 83.1%; viability, T/C [16]: 51%; viability, T/C [37]: 94%; viability, T/C [38]: 90.3%; viability, T/C [21]: 74.3%; viability, T/C [22]: 47.5%; viability, T/C [39]: 89.1%; viability, T/C [40]: 99.9%; viability, T/C [27]: 60.1%; viability, T/C [28]: 4.51%
CCNC(=O)CC1N=C(c2ccc(Cl)cc2)c2cc(OC)ccc2-n2c(C)nnc21 (stereo not given) + C=CC(=O)N1CCN(c2nc(=O)n(-c3c(C)ccnc3C(C)C)c3nc(-c4c(O)cccc4F)c(F)cc23)C(C)C1 | 2.65 µM | 4.87 µM | 4.48 µM | > 10 µM | 4.23 µM | 103% | 97.6% | 80.8% | 68.5% | 88.4% | 81.2% | 68.3% | 59.7% | 120% | 82.8% | 84.4% | 101% | 92.7% | 94.5% | 102% | viability, T/C [5]: 43%; viability, T/C [6]: 40.8%; viability, T/C [11]: 55%; viability, T/C [12]: 44.5%; viability, T/C [16]: 64.1%; viability, T/C [17]: 56.1%; viability, T/C [18]: 40.8%; viability, T/C [21]: 78.6%; viability, T/C [22]: 65.3%; viability, T/C [23]: 59.1%; viability, T/C [24]: 51.8%; viability, T/C [27]: 82.6%; viability, T/C [28]: 74.6%; viability, T/C [29]: 50.7%; viability, T/C [30]: 43%
Cn1ncnc1[C@H]1c2n[nH]c(=O)c3cc(F)cc(c23)N[C@@H]1c1ccc(F)cc1 + C=CC(=O)N1CCN(c2nc(=O)n(-c3c(C)ccnc3C(C)C)c3nc(-c4c(O)cccc4F)c(F)cc23)C(C)C1 | > 0.1 µM | > 0.1 µM | > 0.1 µM | > 0.1 µM | > 0.1 µM | 102% | 93% |  |  | 98.9% | 72.7% |  |  | 94.6% | 80.8% |  | 90.3% | 89.8% | 96% | 102% | viability, T/C (second compound 0.1 µM, first compound 0.000316 µM): 106%; viability, T/C (second compound 0.1 µM, first compound 0.001 µM): 98.3%; viability, T/C [31]: 81.8%; viability, T/C [32]: 92.3%; viability, T/C (second compound 0.316 µM, first compound 0.000316 µM): 110%; viability, T/C (second compound 0.316 µM, first compound 0.001 µM): 110%; viability, T/C [33]: 101%; viability, T/C [34]: 105%; viability, T/C (second compound 1 µM, first compound 0.000316 µM): 117%; viability, T/C (second compound 1 µM, first compound 0.001 µM): 107%; viability, T/C [35]: 93.1%; viability, T/C [36]: 100%; viability, T/C (second compound 3.16 µM, first compound 0.000316 µM): 97.7%; viability, T/C (second compound 3.16 µM, first compound 0.001 µM): 106%; viability, T/C [37]: 98.8%; viability, T/C [38]: 85.1%; viability, T/C (second compound 10 µM, first compound 0.000316 µM): 117%; viability, T/C (second compound 10 µM, first compound 0.001 µM): 103%; viability, T/C [39]: 84.3%; viability, T/C [40]: 99.8%
